Assay results published in patent publication US4031243A, “2-(4-Isobutyl phenyl)butyric acid, salts thereof, and pharmaceutical compositions containing the same” (priority 1975, dated 1977).

Key:
gastric lining = assay: General statements on toxicity, gastric tolerance and activity; conditions: capsule, 100 to 300 milligrams, with talcum and magnesium stearate
[1] = Dissolution of capsule in the stomach (statement); format: physicochemical; conditions: 100 to 300 milligrams, with talcum and magnesium stearate
[2] = system: edema produced by administration of carageenin; assay: animal or person; format: in vivo, rat; design: Increment of Edema ± SEM: unit not given here; conditions: for ED50: Rattus norvegicus, lineal regression; for "+" animals, printed in place of increment of edema: rat, in vivo
From the text: Antiinflammatory activity: Acute rat paw edema test Described by C. H. Winter, E. A. Risley and G. W. Nuss in a paper entitled "[…]-induced edema in hind paw of the rat as an assay for antiinflammatory drugs", published in Proc. Soc. Exp. Biol. Med., volume 111, page 544 (1962). ED50 in this test represents the effective dose in milligrams per kilogram of body weight that is required to inhibit edema produced by administration of carageenin to the rat.

mucosa = assay: Ulcerogenic assay; format: in vivo, rat; conditions: 20 rats, scale 0 no ulcers to 3 ulceration with craters
From the text: (§1) Described by S. Wong, J. F. Gardocki and T. P. Pruss in J. Pharm. Exper.
(§2) UD50 represents the dose in milligrams per kilogram of body weight that is based upon a point scale as follows:
(§3) 3 -- ulceration with craters
(§4) U.S. 50 Half ulcerogenic dose -- dose which produces 50% of the
(§5) maximum possible score points in one group of rats.

[3] = Analgesic activity: Hot-plate test; format: in vivo; conditions: for Reaction time Half ± SEM: control 103.3 ± 7.9
[4] = Analgesic activity: Tail pinch test in the mouse; format: in vivo; conditions: for ED50: Mus musculus; for Animals Not protected, TOTALS / Animals Protected, TOTALS: all doses (60-240 mg/kg)
From the text: Analgesic activity: Tail pinch test in the mouse Described by F. Haffner in Deutsch. med. […] ED50 in this test represents the effective dose in milligrams per kilogram of body weight that is required to increase the reaction time by a factor of at least 3 over the reaction time of the same animal before the test substance had been administered.

granulation tissue = assay: Antiinflammatory activity: Formation of granulation tissue in the rat; format: in vivo; conditions: oral; for ED50: Rattus norvegicus, 50% inhibition of granulation tissue, lineal regression; for Weight of granulated tissue ± SEM: control 198 ± 3.63, in mg (unit assumed)
From the text: Antiinflammatory activity: Formation of granulation tissue in the rat
Described by N. Pisanti, G. Volterra and A. Meli, in a paper entitled "Pharmacological data on a new antiinflammatory agent", published in Il Farmaco(Ed. Scientifica) vol. 38, page 51 (1973).
ED50 in this test represents the effective dose in milligrams per kilogram of body weight that is required to inhibit by an increment of 50% the formulation of granulation tissue in the rat.

Ulcerogenic assay = format: in vivo, rat; conditions: rat, in vivo; dose which produces 50% of the maximum possible score points in one group of rats; lineal regression; read-out: UD50 (the source's name)
From the text: as §1, §2, §3, §4, §5

[5] = 144 h, Table 2, oral, administration 6 days
[6] = Table 1, oral, 120 mg/kg, control 14.80 ± 0.94
[7] = Table 1, oral, 180 mg/kg, control 14.80 ± 0.94
[8] = Table 1, oral, 240 mg/kg, control 14.80 ± 0.94
[9] = Table 2, oral, 120 mg/kg, administration 6 days
[10] = Table 2, oral, 120 mg/kg, administration 6 days, control 15.35 ± 0.31
[11] = Table 2, oral, 180 mg/kg, administration 6 days
[12] = Table 2, oral, 180 mg/kg, administration 6 days, control 15.35 ± 0.31
[13] = Table 2, oral, 240 mg/kg, administration 6 days
[14] = Table 2, oral, 240 mg/kg, administration 6 days, control 15.35 ± 0.31
[15] = Table 3, I.P., 120 mg/kg, control 12.50 ± 1.66

In the case of `CCC(C(=O)[O-])c1ccc(CC(C)C)cc1.[Na+]` (centres unmarked), the “gastric upset or irritation” value (gastric lining) is reported as “without producing a gastric upset or irritation” and the “dissolution in the stomach” value [1] is reported as “dissolves well in the stomach”.

For `CCC(C(=O)O)c1ccc(CC(C)C)cc1` (centres unmarked) [2-(4-Isobutylphenyl)butyric acid, 2-(4-isobutylphenyl) butyric acid], the ED50 [2, 5] was 204 mg/kg, the ED50 ([2]; ip, Table 3, I.P.) was 133 mg/kg and the ED50 ([2]; Table 1, oral) was 116 mg/kg. For the same compound, the “% Inhibition” value ([2]; Table 1, oral, 120 mg/kg) was 51.01%, the “Increment of Edema ± SEM” value [2, 6] was 7.25 ± 1.00 and the “% Inhibition” value ([2]; Table 1, oral, 180 mg/kg) was 58.10%. For the same compound, the “Increment of Edema ± SEM” value [2, 7] was 6.20 ± 0.84, the “% Inhibition” value ([2]; Table 1, oral, 240 mg/kg) was 66.21% and the “Increment of Edema ± SEM” value [2, 8] was 5.00 ± 0.97. For the same compound, the “% Inhibition” value [2, 9] was 24.03%, the “Increment of Edema ± SEM” value [2, 10] was 11.66 ± 0.67 and the “% Inhibition” value [2, 11] was 40.97%. The “Increment of Edema ± SEM” value [2, 12] was 9.06 ± 0.39, the “% Inhibition” value [2, 13] was 60.06% and the “Increment of Edema ± SEM” value [2, 14] was 6.13 ± 0.35. The “% Inhibition” value ([2]; Table 3, I.P., 120 mg/kg) was 49.36%, the “Increment of Edema ± SEM” value [2, 15] was 6.33 ± 0.88 and the “% Inhibition” value ([2]; Table 3, I.P., 240 mg/kg) was 64.00%. For the same compound, the “Increment of Edema ± SEM” value ([2]; Table 3, I.P., 240 mg/kg, control 12.50 ± 1.66) was 4.50 ± 1.05, the “% Inhibition” value ([2]; Table 3, I.P., 360 mg/kg) was 92.96% and the “Increment of Edema ± SEM” value ([2]; Table 3, I.P., 360 mg/kg, control 12.50 ± 1.66) was 0.88 ± 0.26. It also gave a Point score (mucosa; 60 mg/kg/day) of 2, a Point score (mucosa; 120 mg/kg/day) of 7 and a Point score (mucosa; 240 mg/kg/day) of 14. The “% Increase of Reaction time” value ([3]; oral, 60 mg/kg) was 7.0%, the “Reaction time Half ± SEM” value ([3]; oral, 60 mg/kg) was 110.6 ± 7.0 s and the “% Increase of Reaction time” value ([3]; oral, 120 mg/kg) was 35.0%. For the same compound, the “Reaction time Half ± SEM” value ([3]; oral, 120 mg/kg) was 139.5 ± 10.7 s, the “% Increase of Reaction time” value ([3]; oral, 180 mg/kg) was 37.0% and the “Reaction time Half ± SEM” value ([3]; oral, 180 mg/kg) was 142.3 ± 7.6 s. For the same compound, the “% Increase of Reaction time” value ([3]; oral, 240 mg/kg) was 78.4%, the “Reaction time Half ± SEM” value ([3]; oral, 240 mg/kg) was 184.3 ± 13.1 s and the ED50 ([3]; oral, increase by 50% of reaction time, lineal regression, read-out: ED50) was 162 mg/kg. For the same compound, the ED50 ([4]; oral, reaction time increased by factor of at least 3, lineal regression, read-out: ED50) was 118 mg/kg, the “% Protection” value ([4]; oral, 60 mg/kg) was 15% and the “Animals Not protected” value ([4]; oral, 60 mg/kg) was 17. For the same compound, the “Animals Protected” value ([4]; oral, 60 mg/kg) was 3, the “% Protection” value ([4]; oral, 120 mg/kg) was 50% and the “Animals Not protected” value ([4]; oral, 120 mg/kg) was 10. For the same compound, the “Animals Protected” value ([4]; oral, 120 mg/kg) was 10, the “% Protection” value ([4]; oral, 180 mg/kg) was 70% and the “Animals Not protected” value ([4]; oral, 180 mg/kg) was 6. The “Animals Protected” value ([4]; oral, 180 mg/kg) was 14, the “% Protection” value ([4]; oral, 240 mg/kg) was 90% and the “Animals Not protected” value ([4]; oral, 240 mg/kg) was 2. For the same compound, the “Animals Protected” value ([4]; oral, 240 mg/kg) was 18, the “Animals Not protected, TOTALS” value ([4]; oral) was 35 and the “Animals Protected, TOTALS” value ([4]; oral) was 45. For the same compound, the ED50 (granulation tissue) was 252 mg/kg, the “% Inhibition” value (granulation tissue; 120 mg/kg) was 11.11% and the “Weight of granulated tissue ± SEM” value (granulation tissue; 120 mg/kg) was 176 ± 13.09. For the same compound, the “% Inhibition” value (granulation tissue; 180 mg/kg) was 34.34%, the “Weight of granulated tissue ± SEM” value (granulation tissue; 180 mg/kg) was 130 ± 8.54 and the “% Inhibition” value (granulation tissue; 240 mg/kg) was 46.46%. The “Weight of granulated tissue ± SEM” value (granulation tissue; 240 mg/kg) was 106 ± 9.97.

In the case of `CC(=O)Oc1ccccc1C(=O)O` [Aspirin, reference compound], the “% Increase of Reaction time” value ([3]; oral, 120 mg/kg) is reported as 22.7%, the “Reaction time Half ± SEM” value ([3]; oral, 120 mg/kg) is reported as 126.8 ± 13.7 s and the “% Increase of Reaction time” value ([3]; oral, 180 mg/kg) is reported as 57.4%. For the same compound, the “Reaction time Half ± SEM” value ([3]; oral, 180 mg/kg) was 162.6 ± 8.0 s, the “% Increase of Reaction time” value ([3]; oral, 240 mg/kg) was 69.5% and the “Reaction time Half ± SEM” value ([3]; oral, 240 mg/kg) was 175.1 ± 5.9 s. For the same compound, the ED50 ([3]; po) was 173 mg/kg, the ED50 ([4]; po) was 115 mg/kg and the “% Protection” value ([4]; oral, 60 mg/kg) was 13.3%. For the same compound, the “Animals Not protected” value ([4]; oral, 60 mg/kg) was 13, the “Animals Protected” value ([4]; oral, 60 mg/kg) was 2 and the “% Protection” value ([4]; oral, 120 mg/kg) was 53.3%. For the same compound, the “Animals Not protected” value ([4]; oral, 120 mg/kg) was 7, the “Animals Protected” value ([4]; oral, 120 mg/kg) was 8 and the “% Protection” value ([4]; oral, 180 mg/kg) was 73.3%. The “Animals Not protected” value ([4]; oral, 180 mg/kg) was 4, the “Animals Protected” value ([4]; oral, 180 mg/kg) was 11 and the “% Protection” value ([4]; oral, 240 mg/kg) was 93.3%. For the same compound, the “Animals Not protected” value ([4]; oral, 240 mg/kg) was 1, the “Animals Protected” value ([4]; oral, 240 mg/kg) was 14 and the “Animals Not protected, TOTALS” value ([4]; oral) was 25. The “Animals Protected, TOTALS” value ([4]; oral) was 35.

With `CCCCC1C(=O)N(c2ccccc2)N(c2ccccc2)C1=O` [Phenylbutazone, reference compound] the ED50 [2, 5] was 177 mg/kg, the ED50 ([2]; Table 1, oral) was 77.1 mg/kg and the “% Inhibition” value ([2]; Table 1, oral, 120 mg/kg) was 56.08%. The “Increment of Edema ± SEM” value [2, 6] was 6.50 ± 1.02, the “% Inhibition” value ([2]; Table 1, oral, 180 mg/kg) was 64.86% and the “Increment of Edema ± SEM” value [2, 7] was 5.20 ± 0.41. For the same compound, the “% Inhibition” value ([2]; Table 1, oral, 240 mg/kg) was 70.94%, the “Increment of Edema ± SEM” value [2, 8] was 4.30 ± 0.89 and the “% Inhibition” value [2, 9] was 34.85%. For the same compound, the “Increment of Edema ± SEM” value [2, 10] was 10.00 ± 0.73, the “% Inhibition” value [2, 11] was 42.28% and the “Increment of Edema ± SEM” value [2, 12] was 8.86 ± 0.36. For the same compound, the “% Inhibition” value [2, 13] was 69.64%, the “Increment of Edema ± SEM” value [2, 14] was 4.66 ± 0.54 and the “% Inhibition” value ([2]; Table 3, I.P., 120 mg/kg) was 45.36%. For the same compound, the “Increment of Edema ± SEM” value [2, 15] was 6.83 ± 0.94, the “"+" animals, printed in place of increment of edema” value ([2]; ip, 240 mg/kg) was “+ four animals” and the “"+" animals, printed in place of increment of edema” value ([2]; ip, 360 mg/kg) was “+ five animals”. The TD50 (Ulcerogenic assay) was 226 mg/kg, the Point score (mucosa; 60 mg/kg/day) was 8 and the Point score (mucosa; 120 mg/kg/day) was 17. The Point score (mucosa; 240 mg/kg/day) was 32, the ED50 (granulation tissue) was 264 mg/kg and the “% Inhibition” value (granulation tissue; 120 mg/kg) was 15.65%. The “Weight of granulated tissue ± SEM” value (granulation tissue; 120 mg/kg) was 167 ± 8.25, the “% Inhibition” value (granulation tissue; 180 mg/kg) was 35.35% and the “% Inhibition” value (granulation tissue; 240 mg/kg) was 44.94%. For the same compound, the “Weight of granulated tissue ± SEM” value (granulation tissue; 240 mg/kg) was 109 ± 8.77.
